Counter-ions that a name gives are not always drawn. Like-named read-outs stand apart in the source and are kept apart here.
What was measured:
thiol peptide [1] = test: Cys-DPRA (Direct Peptide Reactivity Assay), literature data; settings: for Cys-DPRA binary classification: FN: false negative; for Cys-DPRA binary classification: FP: false positive; for Cys-DPRA binary classification: TN: true negative; for Cys-DPRA binary classification: TP: true positive
thiol peptide [2] = settings: cited from earlier work
[3] = Microplate spectrophotometric method (DCYA assay), fluorescence end-point; settings: for DCYA 100-RI: RI = reactivity index, 2 equiv. electrophile, pH 10 buffer; for DCYA binary classification: FN: false negative; for DCYA binary classification: FP: false positive; for DCYA binary classification: TN: true negative; for DCYA binary classification: TP: true positive, positive if 100-RI <95; for DCYA assay reactivity / classification in words: microplate spectrophotometric method
[4] = test system: ARE-dependent gene activity in a recombinant cell line; settings: cited from earlier work
[5] = cited from earlier work; for LLNA EC3: reported results (Table 7)
[6] = reported results from the literature

| SMILES | Cys-DPRA binary classification: FN (thiol peptide [1]) | Cys-DPRA binary classification: FP (thiol peptide [1]) | Cys-DPRA binary classification: TN (thiol peptide [1]) | Cys-DPRA binary classification: TP (thiol peptide [1]) | Cys-DPRA % Pept. remain. (thiol peptide [2]) [%] | DCYA 100-RI [3] | DCYA binary classification: FN [3] | DCYA binary classification: FP [3] | DCYA binary classification: TN [3] | DCYA binary classification: TP [3] | KeratinoSens ™ EC3 [4] [µM] | LLNA EC3 [5] [%] | Cys-DPRA % Pept. remain. (thiol peptide [2]; [6]) [%] | KeratinoSens ™ EC3 ([4]; reported results (Table 7)) [µM] | LLNA Classification ([5]; published literature) | DCYA assay reactivity / classification in words [3] | Cys-DPRA reactivity in words (thiol peptide [2]; literature) | DCYA adduct after long incubation ([3]; after 24 h of incubation) |
| --- | --- | --- | --- | --- | --- | --- | --- | --- | --- | --- | --- | --- | --- | --- | --- | --- | --- | --- |
| Clc1ccccc1 [Chlorobenzene] | 0 | 0 | 1 | 0 | 99.6 | 97.8 | 0 | 0 | 1 | 0 | >2000 |  |  |  |  |  |  |  |
| OCC=Cc1ccccc1 [Cinnamyl alcohol] |  |  |  |  |  | 105.0 |  |  |  |  |  | 21 | 100 | >2000 |  |  |  |  |
| CCC/C=C/C=O [trans-2-Hexenal] | 0 | 0 | 0 | 1 |  | 29.9 | 0 | 0 | 0 | 1 |  | 5.5 | 2.1 | 374.57 | moderate sensitizer |  |  |  |
| COc1cc(C=O)ccc1O [Vanillin] | 0 | 0 | 1 | 0 |  | 106.4 | 0 | 0 | 1 | 0 |  |  | 96.8 | >2000 |  |  |  |  |
| CCOC(=O)/C=C\C(=O)OCC [Diethyl maleate] | 0 | 0 | 0 | 1 |  | −8.84 | 0 | 0 | 0 | 1 |  | 5.8 | 0 | 82.85 |  |  |  |  |
| O=[N+]([O-])c1ccc(Cl)c([N+](=O)[O-])c1 [1-Chloro-2,4-dinitrobenzene] | 0 | 0 | 0 | 1 |  |  | 1 | 0 | 0 | 0 |  |  | 0 | 3.89 |  |  |  |  |
| CC(C)=CCCC(C)=CCCC(C)=CC=O [Farnesal] | 0 | 0 | 0 | 1 |  |  |  |  |  |  |  |  | 83.6 | >2000 |  |  |  |  |
| CC(C=O)Cc1ccc(C(C)(C)C)cc1 (centres unmarked) [Lilial] | 0 | 1 | 0 | 0 |  |  | 1 | 0 | 0 | 0 |  |  | 86 | >2000 |  | non-reactive |  |  |
| O=C1OC(=O)C2CCCCC12 (centres unmarked) [1,2-Cyclohexanedicarboxylic anhydride] |  |  |  |  |  | 104.6 |  |  |  |  |  | 0.84 | 84.3 | >2000 |  |  |  |  |
| CCC=CC=CC=O [2,4-Heptadienal] | 0 | 0 | 0 | 1 |  | 54.1 | 0 | 0 | 0 | 1 |  | 4 | 2.7 | 21.91 |  |  |  |  |
| CC(=O)C(=O)CC(C)C [5-Methyl-2,3-hexanedione] | 0 | 0 | 0 | 1 |  | 90.3 | 0 | 0 | 0 | 1 |  |  | 74.2 | 332.21 |  |  |  |  |
| O=c1c(-c2ccccc2)c1-c1ccccc1 [Diphenyl cyclopropenone] | 0 | 0 | 0 | 1 |  | 96.3 | 1 | 0 | 0 | 0 |  | 0.003 | 1.2 | 1.84 |  |  |  |  |
| CCCCBr [1-Bromobutane] | 0 | 1 | 0 | 0 |  |  | 0 | 0 | 1 | 0 |  |  |  | >2000 |  | non-reactive | minimal reaction | minor DCYA adduct |
| CC/C=C\CCCCC=O [cis-6-Nonenal] | 0 | 0 | 0 | 1 |  | 107.3 | 1 | 0 | 0 | 0 |  |  | 92 | 687.67 |  |  |  |  |

— US10261017B2, “Methods for detecting and categorizing skin sensitizers” (University of Mississippi, priority 2014, dated 2019)
